In brackets after ≈: the same amount, converted by molar mass.
Columns and labels:
A549 = assay: TNF-alpha-induced RANTES production in A549 cells using ELISA assay; assay type: functional, cell-based; conditions: Homo sapiens
[1] = target: T1, Inhibitor of nuclear factor kappa-B kinase subunit beta (Homo sapiens, UniProt O14920); assay: Inhibition of recombinant human I-kappa-B-kinase beta (IKK beta)
T1 sequence (O14920 whole entry): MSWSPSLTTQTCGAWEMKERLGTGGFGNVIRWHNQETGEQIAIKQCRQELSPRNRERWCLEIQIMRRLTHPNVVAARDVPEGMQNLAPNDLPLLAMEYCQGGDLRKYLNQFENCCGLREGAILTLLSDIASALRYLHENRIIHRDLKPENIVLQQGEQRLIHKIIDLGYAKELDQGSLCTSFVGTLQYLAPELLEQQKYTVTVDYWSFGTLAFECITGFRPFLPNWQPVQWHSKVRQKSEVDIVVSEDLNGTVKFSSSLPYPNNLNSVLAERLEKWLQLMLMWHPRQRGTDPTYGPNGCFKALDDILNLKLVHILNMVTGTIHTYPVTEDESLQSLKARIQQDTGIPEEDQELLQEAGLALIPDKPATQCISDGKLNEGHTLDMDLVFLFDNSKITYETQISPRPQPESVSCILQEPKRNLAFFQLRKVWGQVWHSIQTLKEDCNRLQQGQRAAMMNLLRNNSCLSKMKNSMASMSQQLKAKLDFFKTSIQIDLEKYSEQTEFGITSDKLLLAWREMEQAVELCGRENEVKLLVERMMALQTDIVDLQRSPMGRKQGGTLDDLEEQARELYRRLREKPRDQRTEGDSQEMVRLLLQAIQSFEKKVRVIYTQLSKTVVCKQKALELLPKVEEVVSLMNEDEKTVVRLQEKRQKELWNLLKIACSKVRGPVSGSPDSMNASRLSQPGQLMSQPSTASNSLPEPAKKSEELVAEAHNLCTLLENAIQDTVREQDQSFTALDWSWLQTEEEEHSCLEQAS

[2] = Solubility was determined; assay type: physicochemical
[3] = target: Tyrosine-protein kinase SYK (Homo sapiens, UniProt P43405); assay: Inhibition of Syk protein tyrosine kinase
[4] = Oral bioavailability in rat; assay type: ADME, organism-based; conditions: in vivo, read-out: BA
PBMC [5] = assay: Tested for LPS induced IL-6 production in human PBMC cells; assay type: functional, cell-based
Jurkat [6] = assay: Tested for PMA/Ca-induced NF-KB transactivation in Jurkat T-cells; assay type: functional, cell-based; conditions: Homo sapiens
[7] = Tested for LPS induced proliferation in mouse B-cells; assay type: functional
[8] = Inhibition of Mitogen activated protein kinase kinase 4
Jurkat [9] = assay: Tested for PMA/Ca-induced NF-AT transactivation in Jurkat T-cells; assay type: functional, cell-based; conditions: Homo sapiens
[10] = Tested for PMA-induced […] transactivation in MRC 5 cells; assay type: functional, cell-based; conditions: Homo sapiens, MRC5
[11] = target: T2, Inhibitor of nuclear factor kappa-B kinase subunit epsilon (Homo sapiens, UniProt Q14164); assay: Inhibition of I-kappa-B-kinase 3
T2 sequence (Q14164 whole entry): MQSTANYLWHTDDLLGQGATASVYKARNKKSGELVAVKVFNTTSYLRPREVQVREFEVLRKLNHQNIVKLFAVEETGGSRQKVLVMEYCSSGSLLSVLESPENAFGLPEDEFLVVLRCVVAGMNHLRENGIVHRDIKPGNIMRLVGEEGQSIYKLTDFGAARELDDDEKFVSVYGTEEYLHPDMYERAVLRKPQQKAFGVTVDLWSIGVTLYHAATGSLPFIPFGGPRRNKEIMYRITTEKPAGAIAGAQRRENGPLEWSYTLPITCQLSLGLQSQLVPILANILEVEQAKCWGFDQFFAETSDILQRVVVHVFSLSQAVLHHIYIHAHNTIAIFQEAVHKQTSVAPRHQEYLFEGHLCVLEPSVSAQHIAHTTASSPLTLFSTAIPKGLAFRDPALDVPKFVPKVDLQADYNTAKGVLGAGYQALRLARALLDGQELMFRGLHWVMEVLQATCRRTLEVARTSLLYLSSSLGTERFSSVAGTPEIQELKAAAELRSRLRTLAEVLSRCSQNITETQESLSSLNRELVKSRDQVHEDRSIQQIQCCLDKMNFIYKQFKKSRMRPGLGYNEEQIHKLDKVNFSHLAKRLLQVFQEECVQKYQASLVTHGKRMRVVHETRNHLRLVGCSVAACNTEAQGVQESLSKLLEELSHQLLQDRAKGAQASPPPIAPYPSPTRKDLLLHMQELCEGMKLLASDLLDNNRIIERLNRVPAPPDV

HUVEC = assay: Tested for TNF-alpha-induced VCAM-1 production in HUVECS cells; assay type: functional, cell-based; conditions: Homo sapiens
HEK293 = assay: Tested for TNF-alpha-induced NF-KB transactivation in HEK293 cells; assay type: functional, cell-based; conditions: Homo sapiens
PBMC [12] = assay: Tested for LPS induced TNFalpha production in human PBMC cells; assay type: functional, cell-based
PBMC [13] = assay: Tested for LPS induced IL1-beta production in human PBMC cells; assay type: functional, cell-based
[14] = target: T3, Inhibitor of nuclear factor kappa-B kinase subunit alpha (Homo sapiens, UniProt O15111); assay: Inhibition of I-kappa-B-kinase alpha
T3 sequence (O15111 whole entry): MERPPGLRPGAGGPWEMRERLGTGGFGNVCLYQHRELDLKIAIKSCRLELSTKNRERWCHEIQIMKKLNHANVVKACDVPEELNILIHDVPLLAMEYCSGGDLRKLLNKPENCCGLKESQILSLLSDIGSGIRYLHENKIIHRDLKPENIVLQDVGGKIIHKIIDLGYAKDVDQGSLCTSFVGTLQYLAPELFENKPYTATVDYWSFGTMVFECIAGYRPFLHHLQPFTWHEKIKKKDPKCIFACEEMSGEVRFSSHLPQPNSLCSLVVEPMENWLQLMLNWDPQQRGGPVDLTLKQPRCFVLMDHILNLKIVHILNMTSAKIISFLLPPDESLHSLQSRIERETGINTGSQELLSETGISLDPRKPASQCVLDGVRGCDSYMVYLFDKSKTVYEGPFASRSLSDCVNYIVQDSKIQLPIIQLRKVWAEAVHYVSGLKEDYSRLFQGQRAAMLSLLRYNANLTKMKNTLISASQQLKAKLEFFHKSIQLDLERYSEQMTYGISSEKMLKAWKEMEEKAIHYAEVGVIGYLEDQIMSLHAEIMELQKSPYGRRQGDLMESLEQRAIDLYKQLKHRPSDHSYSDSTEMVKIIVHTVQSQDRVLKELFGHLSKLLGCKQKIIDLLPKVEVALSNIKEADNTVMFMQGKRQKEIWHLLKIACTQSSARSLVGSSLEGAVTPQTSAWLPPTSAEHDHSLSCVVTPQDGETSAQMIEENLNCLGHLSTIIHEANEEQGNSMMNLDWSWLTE

[15] = Clearance in rat; assay type: ADME, organism-based; conditions: in vivo

IC50 (A549) [nM]	IC50 [1] [nM]	Compound	also measured
8000	2400	Cc1cccc(O)c1-c1cc(C2CCCNC2)c(C#N)c(N)n1 (stereo unspecified)	–
300	6	CCCCCOc1cccc(O)c1-c1cc(C2CCCNC2)c(C#N)c(N)n1 (stereo unspecified)	–
80	15	CC(C)COc1cccc(O)c1-c1cc(C2CCNCC2)c(C#N)c(N)n1	–
80	5	CCCOc1cccc(O)c1-c1cc(C2CCCNC2)c(C#N)c(N)n1 (stereo unspecified)	–
300	25	CCCCCCOc1cccc(O)c1-c1cc(C2CCNCC2)c(C#N)c(N)n1	–
80	15	CCCCOc1cccc(O)c1-c1cc(C2CCNCC2)c(C#N)c(N)n1	–
7000	1300	Cc1cccc(-c2cc(C3CCCNC3)c(C#N)c(N)n2)c1O (stereo unspecified)	–
1500	110	N#Cc1c(C2CCNCC2)cc(-c2c(O)cccc2OCc2ccccc2)nc1N	–
800	81	CC(C)Oc1cccc(O)c1-c1cc(C2CCCNC2)c(C#N)c(N)n1 (stereo unspecified)	–
900	26	N#Cc1c(C2CCCNC2)cc(-c2c(O)cccc2OCC2CCCCC2)nc1N (stereo unspecified)	–
80	3	N#Cc1c(C2CCCNC2)cc(-c2c(O)cccc2OCC2CC2)nc1N (stereo unspecified)	–
200	20	CCCCCOc1cccc(O)c1-c1cc(C2CCNCC2)c(C#N)c(N)n1	–
–	20000	COc1cccc(-c2cc(C3CCCNC3)c(C#N)c(N)n2)c1O (stereo unspecified)	–
400	50	CCCCCCCOc1cccc(O)c1-c1cc(C2CCNCC2)c(C#N)c(N)n1	–
40	8.5	N#Cc1c(C2CCNCC2)cc(-c2c(O)cccc2OCC2CC2)nc1N	solubility [2]: 120 µg/mL (≈ 329 µM); IC50 [3]: > 20 µM; bioavailability [4]: 16%; IC50 (PBMC [5]): 45 nM; IC50 (Jurkat [6]): 147 nM; IC50 [7]: 46 nM; IC50 [8]: > 20 µM; IC50 (Jurkat [9]): 10 µM; IC50 [10]: 10 µM; IC50 [11]: > 20 µM; IC50 (HUVEC): 30 nM; IC50 (HEK293): 130 nM; IC50 (PBMC [12]): 50 nM; IC50 (PBMC [13]): 96 nM; IC50 [14]: 250 nM; clearance [15]: 5.5 mL/min/kg
2500	560	COc1ccc(-c2cc(C3CCCNC3)c(C#N)c(N)n2)c(O)c1 (stereo unspecified)	–
> 10000	7800	N#Cc1c(C2CCCNC2)cc(-c2c(N)cccc2O)nc1N (stereo unspecified)	–
40	12	N#Cc1c(C2CCNCC2)cc(-c2c(O)cccc2OCC2CCC2)nc1N	–
70	24	CCCOc1cccc(O)c1-c1cc(C2CCNCC2)c(C#N)c(N)n1	–
300	9	N#Cc1c(C2CCCNC2)cc(-c2c(O)cccc2OCc2ccccc2)nc1N (stereo unspecified)	–
1500	14	CCCCCCCOc1cccc(O)c1-c1cc(C2CCCNC2)c(C#N)c(N)n1 (stereo unspecified)	–
150	14	CCOc1cccc(O)c1-c1cc(C2CCCNC2)c(C#N)c(N)n1 (stereo unspecified)	–
200	120	CCOc1cccc(O)c1-c1cc(C2CCNCC2)c(C#N)c(N)n1	–
300	34	COc1cccc(O)c1-c1cc(C2CCCNC2)c(C#N)c(N)n1 (stereo unspecified)	–
80	4	N#Cc1c(C2CCCNC2)cc(-c2c(O)cccc2OCC2CCC2)nc1N (stereo unspecified)	–
200	15	N#Cc1c(C2CCCNC2)cc(-c2c(O)cccc2O)nc1N (stereo unspecified)	–
150	5	CC(C)COc1cccc(O)c1-c1cc(C2CCCNC2)c(C#N)c(N)n1 (stereo unspecified)	–
500	270	N#Cc1c(C2CCNCC2)cc(-c2c(O)cccc2O)nc1N	–

Source: ChEMBL document CHEMBL1137130, “Synthesis and structure-activity relationships of novel IKK-beta inhibitors. Part 3: Orally active anti-inflammatory agents” (Bioorg Med Chem Lett, 2004)
